Experimental data: PubChem BioAssay AID192 (DTP/NCI, 2004)
“And” between values parts separate entries of the source, which are not always exact repeats. Equal values may be shown once. Toxic doses and inconclusive results are not listed. Peptide text beside a SMILES is read from it. * marks the point of attachment. Cbz = O=C(OCc1ccccc1)*

Tested on: BDF1 mice, B16 melanoma ip, median survival T/C
Assay: NCI In Vivo Anticancer Drug Screen. Data for tumor model B16 Melanoma (intraperitoneal) in B6D2F1 (BDF1) mice
Conditions: endpoint: median survival time, higher = longer survival
Outline: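 Values are ratios of treated (T) to vehicle-control (C) measurements of survival or tumor size in tumor-bearing mice.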

[1] = dose: 400.0 mg/kg/injection, schedule: Q01DX009 (ip), vehicle: Klucel (hydroxypropylcellulose) (HPC)
[2] = dose: 50.0 mg/kg/injection, schedule: Q01DX009 (ip), vehicle: saline with Tween-80
[3] = dose: 100.0 mg/kg/injection, schedule: Q01DX009 (ip), vehicle: saline with Tween-80
[4] = dose: 6.25 mg/kg/injection, schedule: Q01DX009 (ip), vehicle: Klucel (hydroxypropylcellulose) (HPC)
[5] = dose: 12.5 mg/kg/injection, schedule: Q01DX009 (ip), vehicle: Klucel (hydroxypropylcellulose) (HPC)
[6] = dose: 25.0 mg/kg/injection, schedule: Q01DX009 (ip), vehicle: Klucel (hydroxypropylcellulose) (HPC)
[7] = dose: 50.0 mg/kg/injection, schedule: Q01DX009 (ip), vehicle: Klucel (hydroxypropylcellulose) (HPC)
[8] = dose: 200.0 mg/kg/injection, schedule: Q01DX009 (ip), vehicle: saline with Tween-80
[9] = dose: 100.0 mg/kg/injection, schedule: Q01DX009 (ip), vehicle: Klucel (hydroxypropylcellulose) (HPC)
[10] = dose: 200.0 mg/kg/injection, schedule: Q01DX009 (ip), vehicle: Klucel (hydroxypropylcellulose) (HPC)
[11] = dose: 6.25 mg/kg/injection, schedule: Q01DX009 (ip), vehicle: saline
[12] = dose: 12.5 mg/kg/injection, schedule: Q01DX009 (ip), vehicle: saline
[13] = dose: 25.0 mg/kg/injection, schedule: Q01DX009 (ip), vehicle: saline
[14] = dose: 50.0 mg/kg/injection, schedule: Q01DX009 (ip), vehicle: saline
[15] = dose: 75.0 mg/kg/injection, schedule: Q01DX009 (ip), vehicle: Klucel (hydroxypropylcellulose) (HPC)
[16] = dose: 150.0 mg/kg/injection, schedule: Q01DX009 (ip), vehicle: Klucel (hydroxypropylcellulose) (HPC)
[17] = dose: 300.0 mg/kg/injection, schedule: Q01DX009 (ip), vehicle: Klucel (hydroxypropylcellulose) (HPC)
[18] = dose: 1.5 mg/kg/injection, schedule: Q01DX009 (ip), vehicle: Klucel (hydroxypropylcellulose) (HPC)
[19] = dose: 3.0 mg/kg/injection, schedule: Q01DX009 (ip), vehicle: Klucel (hydroxypropylcellulose) (HPC)
[20] = dose: 25.0 mg/kg/injection, schedule: Q01DX009 (ip), vehicle: saline with Tween-80
[21] = dose: 6.25 mg/kg/injection, schedule: Q01DX009 (ip), vehicle: saline with Tween-80
[22] = dose: 12.5 mg/kg/injection, schedule: Q01DX009 (ip), vehicle: saline with Tween-80

Cc1ccc(S(=O)(=O)N2CCC(O)(c3ccccc3)CC2)cc1
T/C (dose: 20.0 mg/kg/injection, schedule: Q01DX009 (ip), vehicle: Klucel (hydroxypropylcellulose) (HPC)): 87 % of control
T/C (dose: 100.0 mg/kg/injection, schedule: Q04DX003 (ip), vehicle: Klucel (hydroxypropylcellulose) (HPC)): 95 % of control
T/C (dose: 200.0 mg/kg/injection, schedule: Q04DX003 (ip), vehicle: Klucel (hydroxypropylcellulose) (HPC)): 91 % of control
T/C [1]: 119 % of control
T/C (dose: 400.0 mg/kg/injection, schedule: Q04DX003 (ip), vehicle: Klucel (hydroxypropylcellulose) (HPC)): 97 % of control

O=C(NC(Cc1ccccc1)C(=O)NC(CO)C(=O)O)OCc1ccccc1 (stereo not drawn) (Cbz-Phe-Ser-OH; configuration not given here)
T/C [2]: 95 % of control
T/C [3]: 90 % of control

O=C1N(Br)C(=O)C(c2ccc(Cl)cc2)(c2ccc(Cl)cc2)N1Br
T/C [4]: 103 % of control
T/C [5]: 98 % of control
T/C [6]: 100 % of control
T/C [7]: 88 % of control

NNC(=O)c1ccc(N)cc1
T/C [2]: 112 % of control
T/C [3]: 102 % of control
T/C [8]: 97 % of control

CCCCN(CCCC)C(Cl)=Nc1ccccc1
T/C [4]: 89 % of control and 99 % of control
T/C [5]: 101 % of control and 102 % of control
T/C [6]: 101 % of control
T/C [7]: 96 % of control and 103 % of control
T/C [9]: 93 % of control and 105 % of control
T/C [10]: 88 % of control and 100 % of control

O=C(O)CC(=O)O.[NH-]CC[NH-].[Pt+2]
T/C (dose: 3.12 mg/kg/injection, schedule: Q01DX009 (ip), vehicle: dextrose): 119 % of control
T/C (dose: 12.5 mg/kg/injection, schedule: Q01DX009 (ip), vehicle: dextrose): 171 % of control
T/C [6]: 197 % of control and 214 % of control

CNCCCN1c2ccccc2CCc2ccccc21
T/C (dose: 3.12 mg/kg/injection, schedule: Q01DX009 (ip), vehicle: saline): 105 % of control
T/C [4]: 106 % of control
T/C [11]: 96 % of control
T/C [5]: 101 % of control
T/C [12]: 102 % of control
T/C [6]: 100 % of control
T/C [13]: 87 % of control
T/C [7]: 86 % of control
T/C [14]: 101 % of control

CCOC(=O)C1=NN(c2ccccc2)C(=O)C1
T/C [9]: 97 % of control
T/C [10]: 97 % of control
T/C [1]: 97 % of control

C=C(C)C12OC3(c4ccccc4)OC1C1C4OC4(CO)C(O)C4(O)C(=O)C(C)=CC4C1(O3)C(C)C2OC(=O)c1ccccc1 (stereo unspecified)
T/C (dose: 0.1 mg/kg/injection, schedule: Q01DX009 (ip), vehicle: saline with Tween-80): 99 % of control
T/C (dose: 0.2 mg/kg/injection, schedule: Q01DX009 (ip), vehicle: saline with Tween-80): 101 % of control
T/C (dose: 0.4 mg/kg/injection, schedule: Q01DX009 (ip), vehicle: saline with Tween-80): 98 % of control

N#Cc1ccccc1C(C#N)c1ccc([N+](=O)[O-])cc1 (stereo unspecified)
T/C [3]: 100 % of control
T/C [8]: 90 % of control

COc1ccc(/C=C/c2cnc3ccccc3n2)cc1OC
T/C [15]: 100 % of control
T/C [16]: 100 % of control
T/C [17]: 92 % of control

CCC[CH2][Pb]([CH2]CCC)([CH2]CCC)[O]C(=O)CCl
T/C (dose: 1.56 mg/kg/injection, schedule: Q01DX009 (ip), vehicle: Klucel (hydroxypropylcellulose) (HPC)): 90 % of control

[Cl][Pt+2][Cl].[NH-]C1CCCCC1.[NH-]C1CCCCC1
T/C [4]: 105 % of control
T/C [5]: 110 % of control
T/C [6]: 92 % of control and 117 % of control
T/C [7]: 97 % of control

CCCCCc1ccccc1
T/C [9]: 106 % of control
T/C [10]: 110 % of control
T/C [1]: 90 % of control

Nc1cccs1
T/C [12]: 108 % of control
T/C [13]: 99 % of control
T/C [14]: 94 % of control

C(=Nc1ccc2c(c1)Cc1ccccc1-2)c1ccnc2ccccc12
T/C [9]: 103 % of control
T/C [10]: 100 % of control
T/C [1]: 93 % of control

C=C(OC1C(C)=C2C(C1OC(=O)CCCCCCC)C(C)(OC(C)=O)CC(OC(=O)CCC)C1(O)C2OC(=O)C1(C)O)/C(C)=C/C (stereo unspecified)
T/C (dose: 0.37 mg/kg/injection, schedule: Q01DX009 (ip), vehicle: Klucel (hydroxypropylcellulose) (HPC)): 97 % of control
T/C [18]: 99 % of control
T/C [19]: 115 % of control

Cc1ncc([N+](=O)[O-])n1CCO
T/C (dose: 18.7 mg/kg/injection, schedule: Q01DX009 (ip), vehicle: Klucel (hydroxypropylcellulose) (HPC)): 104 % of control
T/C (dose: 37.5 mg/kg/injection, schedule: Q01DX009 (ip), vehicle: Klucel (hydroxypropylcellulose) (HPC)): 118 % of control
T/C [15]: 115 % of control
T/C [16]: 102 % of control
T/C [17]: 113 % of control
T/C (dose: 600.0 mg/kg/injection, schedule: Q01DX009 (ip), vehicle: Klucel (hydroxypropylcellulose) (HPC)): 106 % of control

CC1(c2ccccc2)CCc2ccccc21 (stereo unspecified)
T/C [20]: 103 % of control
T/C [2]: 89 % of control
T/C [3]: 90 % of control

COc1cc(O)c2c(c1)Cc1cc(C)cc(O)c1C2=O
T/C [21]: 93 % of control
T/C [22]: 98 % of control
T/C [20]: 98 % of control

CC(=O)Nc1ccc2c(c1)Cc1cc(NC=O)ccc1-2
T/C (dose: 0.75 mg/kg/injection, schedule: Q01DX009 (ip), vehicle: Klucel (hydroxypropylcellulose) (HPC)): 88 % of control
T/C [18]: 93 % of control
T/C [19]: 90 % of control

CCCCCCCCCCCCCCCCCCOCCCCCCCCCCCCCCCCCC
T/C [3]: 90 % of control
T/C (dose: 400.0 mg/kg/injection, schedule: Q01DX009 (ip), vehicle: saline with Tween-80): 88 % of control

CSc1nc(NC(C)C)nc(NC(C)C)n1
T/C [20]: 102 % of control
T/C [2]: 92 % of control
T/C [3]: 102 % of control

CC1(C)C(=O)NC(=O)C1(C)C
T/C [11]: 92 % of control
T/C [12]: 96 % of control
T/C [13]: 95 % of control
T/C [14]: 90 % of control

COc1ccc2c(c1OC(C)=O)-c1cc(O)cc3c1C(C2)N(C(=O)CN(CCCl)CCCl)CC3 (stereo unspecified)
T/C (dose: 3.12 mg/kg/injection, schedule: Q01DX009 (ip), vehicle: saline with Tween-80): 168 % of control
T/C [21]: 187 % of control
T/C (dose: 6.25 mg/kg/injection, schedule: Q04DX003 (ip), vehicle: DMSO): 103 % of control
T/C [22]: 197 % of control
T/C (dose: 12.5 mg/kg/injection, schedule: Q04DX003 (ip), vehicle: DMSO): 121 % of control
T/C (dose: 25.0 mg/kg/injection, schedule: Q04DX003 (ip), vehicle: DMSO): 110 % of control
T/C (dose: 100.0 mg/kg/injection, schedule: Q04DX003 (ip), vehicle: DMSO): 112 % of control

CC[N+](CC)(CC)CC
T/C (dose: 0.37 mg/kg/injection, schedule: Q01DX009 (ip), vehicle: saline with Tween-80): 103 % of control
T/C (dose: 0.75 mg/kg/injection, schedule: Q01DX009 (ip), vehicle: saline with Tween-80): 100 % of control
T/C (dose: 1.5 mg/kg/injection, schedule: Q01DX009 (ip), vehicle: saline with Tween-80): 112 % of control
T/C (dose: 3.0 mg/kg/injection, schedule: Q01DX009 (ip), vehicle: saline with Tween-80): 120 % of control
T/C [11]: 123 % of control
T/C (dose: 11.0 mg/kg/injection, schedule: Q01DX009 (ip), vehicle: saline): 112 % of control
T/C [12]: 109 % of control
T/C (dose: 16.5 mg/kg/injection, schedule: Q01DX009 (ip), vehicle: saline): 108 % of control
T/C (dose: 25.0 mg/kg/injection, schedule: Q04DX003 (ip), vehicle: saline): 100 % of control
T/C (dose: 37.5 mg/kg/injection, schedule: Q01DX009 (ip), vehicle: saline): 108 % of control
T/C [14]: 90 % of control
T/C (dose: 50.0 mg/kg/injection, schedule: Q04DX003 (ip), vehicle: saline): 100 % of control

CCCCC(CCC)(CCN)CCCC
T/C (dose: 1.0 mg/kg/injection, schedule: Q01DX009 (ip), vehicle: saline sonified): 102 % of control
T/C (dose: 2.0 mg/kg/injection, schedule: Q01DX009 (ip), vehicle: saline sonified): 97 % of control
T/C (dose: 4.0 mg/kg/injection, schedule: Q01DX009 (ip), vehicle: saline sonified): 100 % of control
